How the values were obtained:
Reh cells [1] = assay: Apoptosis assay (Annexin V-PE / 7-AAD, flow cytometry) of Reh cells transduced with wild-type or mutant cN-II after drug treatment; type: cell-based; settings: Reh cells transduced with lentiviruses encoding wild-type or mutant (Arg238Trp, Arg367Gln or Ser445Phe) cN-II; incubation 24-72 h
Description: Cell Culture and Drug Treatment. Reh cells obtained from the American Type Culture Collection (ATCC) were grown in RPMI1640 supplemented with 10% FBS, 10 mM HEPES and 1% penicillin-streptomycin under 5% CO2 at 37° C. 293T cells (ATCC) were grown in DMEM supplemented with 10% FBS and 1% penicillin-streptomycin under 5% CO2 at 37° C. 6-mercaptopurine, 6-thioguanine, cytarabine, doxorubicin, gemcitabine and prednisolone (Sigma) were serially diluted in RPMI before use at the indicated concentrations.
Transient Transfection and Lentivirus Gene Transfer. NT5C2 DNA for wild-type and mutant (Arg238Trp, Arg367Gln and Ser445Phe) was cloned into the lentiviral vector pLenti using SalI and XbaI restriction sites. All plasmids were sequence verified. cDNA constructs were transfected into 293T cells along with helper plasmids using the calcium phosphate method to produce replication-defective virus. Supernatant was harvested 48 h later and used to transduce Reh cells (whose NT5C2 sequence was verified as wild type) supplemented with […] polybrene (Sigma). Virus-containing medium was replaced 24 h after infection. Cells were monitored 72 h after infection for infection efficiency by the detection of GFP-positive cells using a FACScan (BD). Infected cells were plated (200,000 cells per well in […] of medium) in triplicate for drug treatment with 6-mercaptopurine, 6-thioguanine, cytarabine, doxorubicin, gemcitabine and prednisolone (Sigma). Cells were incubated for 24-72 h and then assayed for apoptosis by Annexin V-PE and 7-AAD staining (Annexin V-PE Apoptosis Detection kit, BD Pharmingen) followed by flow cytometry analysis using a FACScan. The percentages of cells positive and negative for Annexin V and/or 7-AAD staining were analyzed with FlowJo software (version 7.6.1, Tree Star). Data were plotted relative to results obtained with no chemotherapy treatment, and error bars represent the standard deviation from three independent determinations. Cells (1×10^6) were harvested for protein at the time of plating. Briefly, cells were pelleted at 200 g for 5 min and resuspended in […] of RIPA buffer with 1× protease inhibitors (GE Healthcare), incubated on ice for 15 min and centrifuged at 15,000 g for 10 min at 4° C. Protein was subjected to electrophoresis on 9% SDS-Tris acrylamide gels and transferred to PVDF membranes. Membranes were incubated with a 1:5,000 dilution of antibody to Flag (F3165, Sigma), incubated with a 1:10,000 dilution of HRP-conjugated secondary antibody to mouse (GE Healthcare) and developed using ECL (GE Healthcare).

Reh cells [2] = assay: HPLC determination of thioguanine nucleotides in Reh cells after 6-mercaptopurine treatment; type: cell-based; settings: 6-mercaptopurine treatment for 24 h
Description: HPLC determination of nucleotides. Reh cells were transiently infected with NT5C2 constructs. After infection, cells were treated with 10 mM 6-mercaptopurine for 24 h in duplicate. After 24 h, 5×10^6 cells were washed twice with PBS, and cell pellets were frozen at −80° C. Intraceullar accumulation of thioguanine nucleotides (6-mercaptopurine active metabolites) was determined by a reversed-phase liquid chromatography assay as described previously (Dervieux et al., “HPLC Determination of Thiopurine Nucleosides and Nucleotides In Vivo in Lymphoblasts Following Mercaptopurine Therapy,” Clin. Chem. 48: 61-68 (2002), which is hereby incorporated by reference in its entirety).

cN-II = cN-II (Homo sapiens, UniProt P49902); settings: cited from earlier work
cN-II, sequence (P49902 whole entry): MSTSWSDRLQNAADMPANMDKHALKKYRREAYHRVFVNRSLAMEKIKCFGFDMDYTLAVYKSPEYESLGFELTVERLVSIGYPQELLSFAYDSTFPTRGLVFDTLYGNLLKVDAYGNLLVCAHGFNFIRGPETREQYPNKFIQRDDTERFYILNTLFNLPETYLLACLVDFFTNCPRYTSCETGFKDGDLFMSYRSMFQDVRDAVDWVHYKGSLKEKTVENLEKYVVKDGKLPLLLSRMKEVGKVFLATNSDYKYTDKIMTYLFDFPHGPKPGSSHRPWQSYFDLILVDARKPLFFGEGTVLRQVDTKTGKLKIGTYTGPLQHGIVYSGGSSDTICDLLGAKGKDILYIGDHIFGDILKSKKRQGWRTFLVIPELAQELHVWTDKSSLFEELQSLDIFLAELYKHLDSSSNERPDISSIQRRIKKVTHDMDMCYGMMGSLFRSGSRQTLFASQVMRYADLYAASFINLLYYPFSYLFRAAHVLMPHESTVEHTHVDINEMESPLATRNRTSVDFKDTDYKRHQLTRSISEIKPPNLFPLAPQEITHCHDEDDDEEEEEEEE

Compound	resistance to apoptosis of cells expressing mutant forms of cN-II compared to cells expressing wild-type protein (Reh cells [1])	level of thioguanine nucleotides in cells expressing mutant cN-II compared to control cells expressing wild-type protein or GFP (Reh cells [2])	hydrolysis by the purified enzyme (cN-II)
Nc1ccn([C@@H]2O[C@H](CO)[C@@H](O)[C@@H]2O)c(=O)n1 [cytarabine]	no resistance was seen	–	–
Nc1nc2nc[nH]c2c(=S)[nH]1 [6-thioguanine]	significantly more resistant to apoptosis	–	–
Sc1ncnc2nc[nH]c12 [6-mercaptopurine]	significantly more resistant to apoptosis	reduction in the level of thioguanine nucleotides	–
C[C@]12C=CC(=O)C=C1CC[C@@H]1[C@@H]2[C@@H](O)C[C@@]2(C)[C@H]1CC[C@]2(O)C(=O)CO [prednisolone]	no resistance was seen	–	–
Nc1ccn([C@@H]2O[C@H](CO)[C@@H](O)C2(F)F)c(=O)n1 [gemcitabine]	no resistance was seen	–	–
Nc1ccn([C@@H]2O[C@H](COP(=O)(O)O)[C@@H](O)[C@@H]2O)c(=O)n1 [araC monophosphate]	–	–	does not hydrolyze
COc1cccc2c1C(=O)c1c(O)c3c(c(O)c1C2=O)C[C@@](O)(C(=O)CO)C[C@@H]3O[C@H]1C[C@H](N)[C@H](O)[C@H](C)O1 [doxorubicin]	no resistance was seen	–	–

Source: US11795511B2, “Methods and compositions for the prognosis and treatment of relapsed leukemia” (NEW YORK UNIVERSITY, priority 2012, dated 2023)
